From paper PMC8305768, “Design, Synthesis and Antiparasitic Evaluation of Click Phospholipids” (Molecules, 2021)
Structures can show the parent of a compound that is named as a salt.

Tests used:
[1] = molecular target: T1, CYP1A2 (Homo sapiens, UniProt P05177); assay: Cytochrome P450 inhibition assay (P450-Glo) CYP1A2; format: in vitro ADME; settings: compounds 10 μM; miltefosine 10 μM or 1 μM
T1 construct: purchased Corning Inc; host or cells: baculovirus-infected insect cells
T1 sequence (P05177 2-516 limits assumed): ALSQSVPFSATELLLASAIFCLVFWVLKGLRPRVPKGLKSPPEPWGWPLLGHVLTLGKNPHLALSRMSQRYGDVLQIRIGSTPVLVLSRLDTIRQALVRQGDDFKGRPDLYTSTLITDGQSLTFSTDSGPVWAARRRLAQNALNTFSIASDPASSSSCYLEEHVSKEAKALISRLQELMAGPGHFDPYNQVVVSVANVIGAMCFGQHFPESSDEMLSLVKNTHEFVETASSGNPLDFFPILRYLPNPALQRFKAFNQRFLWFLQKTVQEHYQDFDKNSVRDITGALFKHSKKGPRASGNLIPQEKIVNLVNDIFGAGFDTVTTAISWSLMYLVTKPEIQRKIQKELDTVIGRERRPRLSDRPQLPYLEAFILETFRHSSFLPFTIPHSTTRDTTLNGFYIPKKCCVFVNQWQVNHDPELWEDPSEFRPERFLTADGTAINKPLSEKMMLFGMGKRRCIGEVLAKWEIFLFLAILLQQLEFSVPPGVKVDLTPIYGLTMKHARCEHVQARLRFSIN
Text: Cytochrome (CYP) P450 inhibition assay: These assays made use of microsomal preparations of CYP450 (1A2, 2C9, 2C19, 2D6 and 3A4) from baculovirus-infected insect cells (Corning Inc., Corning, NY, USA) and cytochrome c reductase (and cytochrome b5 for CYP450 3A4). For detection of CYP450 activity, the luminescence-based P450-Glo (Promega Corp., Madison, WI, USA) assay system was used that contained a luminogenic CYP450 substrate, lyophilized luciferin detection reagent and reconstitution buffer. The substrates were luciferin derivatives of CYP450-specific substrates that produce (4S)-4,5-dihydro-2-(6-hydroxybenzothiazolyl)-4-thiazolecarboxylic acid (D-luciferin) after cleavage by CYP450 (CYP450 3A4, luciferin-IPA; CYP450 2C19, luciferin-H EGE; CYP450 2C9, luciferin-H; CYP450 2D6, luciferin-ME EGE; CYP450 1A2, luciferin-1A2). CYP450 reactions were initiated by addition of the NADPH regeneration system to the enzyme–substrate mixture with the luciferin detection reagent stopping the reaction and the D-luciferin being converted to oxyluciferin under the production of light being proportional to the CYP450 activity. The CYP450 assays were performed using the Tecan Fluent liquid-handling automation platform (Tecan Group Ltd., Mannedorf, Switzerland) in the 384-well assay format. Compounds were added into an empty 384-well plate (100 nL/well in 1% v/v DMSO) using the Echo 550 Liquid Handler followed by the addition of 5 μL/well of the CYP450/substrate mixture and incubation for 30 min at 37 °C, after which the reaction was initiated by the addition of the 5 μL/well NADPH regeneration system. After a further 30-min incubation at 37 °C, the CYP450 reaction was stopped and the luciferase reaction was simultaneously initiated by addition of 10 μL/well of luciferin detection reagent, followed by an additional 30-min incubation at 37 °C. The luminescence signal was detected using an Infinite M1000 PRO plate reader (Tecan Group Ltd., Mannedorf, Switzerland). The NCs yielded 0% inhibition (1% v/v DMSO) and standard CYP450 specific inhibitors were used as positive controls, yielding 100% inhibition (CYP450 1A2, alpha-naphthoflavone; CYP450 2C9, sulfaphenazole; CYP450 2C19, troglitazone; CYP450 2D6, quinidine; CYP450 3A4, ketoconazole).
Data analysis: The screening data were obtained in triplicate and analysed using ActivityBase (IDBS, Guildford, UK), and outlier elimination in the control wells was performed using the 3-sigma method. Unless stated, dose–response experiments were performed in the 11-point format with the IC50 value, Hill slope, minimum signal and maximum signal for each dose–response curve obtained using a four-parameter logistic fit in the XE module of ActivityBase (IDBS).

[2] = tested on: WI-38 cells; assay: Cytotoxicity assay WI-38 (CellTiter-Glo); format: cell-based; settings: compounds 10 μM; miltefosine 10 μM or 1 μM
Text: Early ADMET profiling: The early ADMET profiling of the new derivatives involved a group of assays widely used in drug development as part of the preclinical in vitro toxicity studies. In particular our panel included hERG inhibition, five cytochromes P450 (CYP1A2, CYP2C9, CYP2C19, CYP2D6 and CYP3A4), two cell-lines (A549, epithelial human lung adenocarcinoma, WI38 and foetal lung fibroblasts), Aurora B kinase and mitochondrial toxicity, in addition to the parasite relevant toxicity against THP1 macrophages. The compounds were tested at 10 μΜ, whilst the miltefosine control was tested at 10 μΜ or 1 μM. The toxicity of the new click phospholipids is depicted in Figure 3 in a traffic light format (from red through yellow to green for decreasing ADMET liabilities).
Cytotoxicity assay: A549 cells and WI-38 cells were grown on surface-modified T175 cell culture flasks in Dulbecco’s modified Eagle medium with 10% foetal calf serum (FCS), streptomycin (100 μg/mL) and 100 U/mL penicillin G. At about 80% confluency, cells were washed, trypsinized, resuspended and counted in RPMI-1640 medium before seeding (in triplicate) into white 384-well microtiter plates (20 μL) at 500 cells/well and incubated at 37 °C in the presence of 5% CO2 for 24 h. A total of 20 μL/well of CellTiter-Glo (CTG) reagent (Promega Corp., Madison, WI, USA) was added to each well, and plates were read using an EnVision Multilabel 2103 Reader after a 10-min incubation in the dark. Dose–response assays for compounds made use of 11-point curves. Each test compound (200 nL of 10 mM top concentration in 100% v/v DMSO) was added to cells seeded in polystyrene 384-well cell culture microtiter plates using the Echo 550 Liquid Handler and read after 24 h of incubation at 37 °C in the presence of 5% CO2 using CTG as described above. The compounds/positive control (paclitaxel with final concentration of 10 μM and 1% v/v DMSO) and no compound (final 1% v/v DMSO) were added into the 384-well plates (200 nL/well; 1% v/v DMSO) using the Echo 550 Liquid Handler. The raw luminescence signal of each sample was converted into the percentage of cell growth.

[3] = tested on: L. donovani strain BPK190 amastigotes; assay: Activity against L. donovani intramacrophage amastigotes (bone marrow-derived macrophages, qPCR); format: cell-based, Leishmania donovani; settings: infected bone marrow-derived macrophages, 48 h; for inhibition of growth at 5 µM: Leishmania donovani, Macrophage, read-out: Parassite Load Reduction (%)
Procedure: L. donovani strain BPK 190 [55] was cultivated at 25 °C in modified Medium199 (Sigma-Aldrich, with 20% heat-inactivated FCS, 40 mM HEPES pH 7.4, 0.2% NaHCO3, 100 μM adenin, 1.2 μg/mL 6-biopterin and 10 μg/mL haem, with 1 × Pen/Strep/l-glutamine (Sigma, Saint Louis, MI, USA), pH 7.0).
Activity against L. donovani strain BPK190 was tested in vitro using bone marrow-derived macrophages as host cells. Infection was established for 24 h prior to the addition of compounds from 10 mM stocks in DMSO. Parasite load was determined 48 h later by quantifying Leishmania actin DNA relative to mouse actin DNA using real time qPCR as described.

SMILES | % inhibition ± SD at 10 μΜ CYP1A2 [1] | % cell growth ± SD at 10 μΜ W1-38 [2] [%] | inhibition of growth at 5 µM [3] [%] | Parassite Load Reduction (%) ([3]; 5 μM)
CCCCCc1cn(CCCCCCCCCCCOP(=O)([O-])OCC[N+](C)(C)C)nn1 [Compound 25, 11-(4-pentyl-1H-1,2,3-triazol-1-yl)undecyl (2-(trimethylammonio)ethyl) phosphate inner salt] | –20.41% | 93.46 | 0 | –
C[N+](C)(C)CCOP(=O)([O-])OCCCCCCCCCCCn1cc(CC2CCCC2)nn1 [Compound 28, 11-(4-(cyclopentylmethyl)-1H-1,2,3-triazol-1-yl)undecyl (2-(trimethylammo nio)ethyl) phosphate inner salt] | –13.84% | 114.04 | 0 | –
C[N+](C)(C)CCOP(=O)([O-])OCCCCCCCCCCCn1cc(CC2CCCCC2)nn1 [Compound 29, 11-(4-(cyclohexylmethyl)-1H-1,2,3-triazol-1-yl)undecyl (2-(trimethylammonio)ethyl) phosphate inner salt] | –28.56% | 92.93 | 41.7 | –
C[N+](C)(C)CCOP(=O)([O-])OCCCCCn1cc(CCCCCCCCNC(=O)OCc2ccccc2)nn1 [Compound 31, 5-(4-(8-(((benzyloxy)carbonyl)amino)octyl)-1H-1,2,3-triazol-1-yl)pentyl (2-(trimethylammonio)ethyl) phosphate inner salt] | 13.80% | 123.63 | 59.2 | –
C[N+](C)(C)CCOP(=O)([O-])OCCCCCCCCCCCn1cc(CCCCCCCCNC(=O)OCc2ccccc2)nn1 [Compound 32, 11-(4-(8-(((benzyloxy)carbonyl)amino)octyl)-1H-1,2,3-triazol-1-yl)undecyl (2-(trimethylammonio)ethyl) phosphate inner salt] | 12.02% | – | 0.7 | abolished the activity
C[N+](C)(C)CCCOP(=O)([O-])OCCCCCCCCCCCn1cc(CC2CCCCC2)nn1 [Compound 33, 11-(4-(cyclohexylmethyl)-1H-1,2,3-triazol-1-yl)undecyl (3-(trimethylammonio)propyl) phosphate inner salt] | 15.23% | 136.32 | 47.8 | –
C[N+](C)(C)CCOP(=O)([O-])OCCCCCCCCCCCn1cc(CCCCCCCCC(=O)O)nn1 [Compound 34, 11-(4-(8-carboxyoctyl)-1H-1,2,3-triazol-1-yl)undecyl (2-(trimethylammonio)ethyl) phosphate inner salt] | –3.73% | – | 43.8 | –
C[N+](C)(C)CCOP(=O)([O-])OCCCCCn1cc(CCCCCCCCN)nn1 [Compound 35, 5-(4-(8-aminooctyl)-1H-1,2,3-triazol-1-yl)pentyl (2-(trimethylammonio)ethyl) phosphate inner salt] | 9.42% | 119.10 | 69.1 | –
CCCCCCCCCCc1cc(CCCCCCCCCCOP(=O)([O-])OCC[N+](C)(C)C)no1 [Compound 41, 10-(5-decylisoxazol-3-yl)decyl (2-(trimethylammonio)ethyl) phosphate inner salt] | 10.86% | – | – | –
CCCCCCCCc1noc(CCCCCOP(=O)([O-])OCC[N+](C)(C)C)n1 [Compound 53, 5-(3-octyl-1,2,4-oxadiazol-5-yl)pentyl (2-(trimethylammonio)ethyl) phosphate inner salt] | 20.03% | 83.83 | – | –
CCCCCCCCc1noc(CCCCCCCCCCOP(=O)([O-])OCC[N+](C)(C)C)n1 [Compound 54, 10-(3-octyl-1,2,4-oxadiazol-5-yl)decyl (2-(trimethylammonio)ethyl) phosphate inner salt] | 9.37% | – | – | –
CCCCCCCc1nnc(CCCCCCCCCCOP(=O)([O-])OCC[N+](C)(C)C)o1 [Compound 65, 10-(5-heptyl-1,3,4-oxadiazol-2-yl)decyl (2-(trimethylammonio)ethyl) phosphate inner salt] | 18.05% | 77.74 | – | –
CCCCCCCCCCCc1nnc(CCCCCCCCCCOP(=O)([O-])OCC[N+](C)(C)C)o1 [Compound 66, 2-(trimethylammonio)ethyl (10-(5-undecyl-1,3,4-oxadiazol-2-yl)decyl) phosphate inner salt] | 12.37% | – | – | –
CCCCCCCCCCCCCCCCOP(=O)([O-])OCC[N+](C)(C)C [Miltefosine, hexadecylphosphocholine, reference compound] | –20.62% | 113.50 | 44.3 | –
